Each structure is given as a SMILES string.

We go through three compounds from patent US11672810B2, “Therapeutics and methods for predicting and overcoming endocrine resistance in breast cancer” (LUNELLA BIOTECH, INC., priority 2019, dated 2023).

Assay [1] deals with MCF7-fibroblasts co-cultures. The conditions noted are these: MCF7-fibroblast co-cultures; Tamoxifen, Fulvestrant; cited from earlier work.
For assay [2], the system named is MCF7-GFP cells. Put plainly: Drug treatment of fluorescently-labeled MCF7-fibroblast co-cultures vs mono-cultures (GFP fluorescence, plate-reader). The format is cell-based, human. Conditions: 72 hours; for Sensitivity of MCF7-GFP cells in co-culture with fibroblasts relative to mono-cultures: at 500 μM drug, GFP fluorescence, hTERT-BJ1-RFP fibroblast co-culture vs MCF7-GFP mono-culture. The source says:
To directly test this hypothesis, a new assay system may be used to monitor the sensitivity of cancer cells to drug treatment, in the presence or absence of fibroblasts. For this purpose, hTERT-BJ1-fibroblasts expressing RFP (red fluorescent protein) and MCF7 cells expressing GFP (green fluorescent protein) were generated. Representative images of these mono-cultures are shown in FIGS. 14A (hTERT-BJ1-RFP) and 14B (MCF7-GFP). The hTERT-BJ1-fibroblasts expressing RFP and MCF7 cells expressing GFP were generated by lentiviral transduction. RFP, red fluorescent protein; GFP, green fluorescent protein.
Validation via drug treatment of fluorescently-labeled MCF7-fibroblast co-cultures: hTERT-BJ1-RFP cells and MCF7-GFP cells were first generated by stable transduction with lenti-viral vectors. Then, these cells were plated into clear flat bottom 96-well black microplates (Corning; CLS3603). Mono-cultures were generated by plating either hTERT-BJ1-RFP (8,000 cells/well) or MCF7-GFP cells (8,000 cells/well). In parallel, co-cultures were generated by co-plating hTERT-BJ1-RFP (6,000 cells/well) with MCF7-GFP (2,000 cells/well). The next day, the plates were treated with either Doxycycline or Azithromycin (or vehicle controls) and were incubated for 72 hours at 37° C. The cell culture plates were then read with a plate-reader at 545/590 nm (for RFP) and at 490/510 nm (for GFP). Background readings were subtracted from the fluorescent signal and data were then normalized to controls.

As to `CN(C)C(=N)N=C(N)N` [Metformin], the “Effect on resistance of co-cultures to apoptosis induced by hormonal therapies” value in assay [1] is “reversed”.
For `C[C@H]1c2cccc(O)c2C(=O)C2=C(O)[C@]3(O)C(=O)C(C(N)=O)=C(O)[C@@H](N(C)C)[C@@H]3[C@@H](O)[C@@H]21` [Doxycycline], the “Concentration at which increased sensitivity of MCF7-GFP cells in co-culture was first observed” value in assay [2] (not observed at 50 μM) stood at 100 µM. Besides, the “Sensitivity of MCF7-GFP cells in co-culture with fibroblasts relative to mono-cultures” value in assay [2] is given as around 5 fold.
As for `CC[C@H]1OC(=O)[C@H](C)[C@@H](O[C@H]2C[C@@](C)(OC)[C@@H](O)[C@H](C)O2)[C@H](C)[C@@H](O[C@@H]2O[C@H](C)C[C@H](N(C)C)[C@H]2O)[C@](C)(O)C[C@@H](C)CN(C)[C@H](C)[C@@H](O)[C@]1(C)O` [Azithromycin], in assay [2], the “Sensitivity of MCF7-GFP cells in co-culture with fibroblasts relative to mono-cultures” value is given as around 8 fold.
